Tests used:
[1] = compound: C[C@@H](Oc1cc(-c2cnn(C3CCNCC3)c2)cnc1N)c1c(Cl)ccc(F)c1Cl [Crizotinib]; details: max 10 µM
How it was run: (§1)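 Following 24 hours at 37°C and 5% CO2, cancer cell lines in 1536-well plates with 7.5 μl DMEM/F12 or RPMI and 10% FBS were dosed for 72 hours, final DMSO typically being 0.2%. CellTiter-Glo 2.0 luminescence, scaled between blank-well and DMSO-well means, gave the viability readout. Dose responses were fitted to a two-parameter logistic curve with a non-linear mixed effects model, and the single-agent IC50 was derived from this fit.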

[2] = compound: COc1nnc2ccc(N3CCC(c4ccc(OCCN5CCN(C)C(=O)[C@H]5C)cc4)CC3)nn12 [AZD5153]; details: max 1 µM
How it was run: as §1

[3] = compound: CC(=O)c1c(C)c2cnc(Nc3ccc(N4CCNCC4)cn3)nc2n(C2CCCC2)c1=O [Palbociclib]; details: max 10 µM
How it was run: as §1

[4] = compound: C[C@@H]1COCCN1C2=NC(=NC(=C2)C3(CC3)[S@](=N)(=O)C)C4=C5C=CNC5=NC=C4 [AZD6738]; details: max 10 µM
How it was run: as §1

[5] = compound: Cc1cc2ncnn2cc1Nc1ncc2c(n1)n(C1CCOCC1)c(=O)n2C [AZD7648]; details: max 10 µM
How it was run: as §1

[6] = compound: CN(CC[C@H](CSC1=CC=CC=C1)NC2=C(C=C(C=C2)S(=O)(=O)NC(=O)C3=CC=C(C=C3)N4CCC(CC4)[C@H](C5=CC=CC=C5C6=CC=C(C=C6)Cl)O)S(=O)(=O)C(F)(F)F)CCO [AZD4320]; details: max 1 µM
How it was run: as §1

[7] = compound: COc1cc(Nc2ncc3c(n2)-c2ccc(Cl)cc2C(c2c(F)cccc2OC)=NC3)ccc1C(=O)O [Alisertib]; details: max 10 µM
How it was run: as §1

[8] = compound: CC1(C)CCC(CN2CCN(c3ccc(C(=O)NS(=O)(=O)c4ccc(NCC5CCOCC5)c([N+](=O)[O-])c4)c(Oc4cnc5[nH]ccc5c4)c3)CC2)=C(c2ccc(Cl)cc2)C1 [Venetoclax]; details: max 1 µM
How it was run: as §1

[9] = compound: CN(C)CCCOc1ccc(-c2ccc3ncc4c(c3c2)n(C2CCOCC2)c(=O)n4C)cn1 [AZD0156]; details: max 3 µM
How it was run: as §1

[10] = compound: O=C(Nc1ccc2[nH]nc(-c3ccncc3)c2c1)[C@@H]1CCN(CC(=O)N2CCN(c3ccc(-c4ncccn4)cc3)CC2)C1; details: max 5 µM
How it was run: as §1

[11] = compound: COc1cccc2c1C(=O)c1c(O)c3c(c(O)c1C2=O)C[C@@](O)(C(=O)CO)C[C@@H]3O[C@H]1C[C@H](N)[C@H](O)[C@H](C)O1 [Doxorubicin]; details: max 1 µM
How it was run: as §1

[12] = compound: C1CN(CCC1(C(=O)N[C@@H](CCO)C2=CC=C(C=C2)Cl)N)C3=NC=NC4=C3C=CN4 [AZD5363]; details: max 10 µM
How it was run: as §1

[13] = compound: Cc1nc(-c2cn3c(n2)-c2ccc(-c4cnn(C(C)(C)C(N)=O)c4)cc2OCC3)n(C(C)C)n1 [Taselisib]; details: max 10 µM
How it was run: as §1

[14] = compound: CC(=O)Nc1cccc(-n2c(=O)n(C3CC3)c(=O)c3c(Nc4ccc(I)cc4F)n(C)c(=O)c(C)c32)c1 [Trametinib]; details: max 1 µM
How it was run: as §1

[15] = compound: CCc1c2c(nc3ccc(O)cc13)-c1cc3c(c(=O)n1C2)COC(=O)[C@]3(O)CC [SN-38]; details: max 0.3 µM
How it was run: as §1

[16] = compound: C[C@@H](c1ccc2nccn2c1)n1nnc2ncc(-c3cnn(C)c3)nc21 [Savolitinib]; details: max 1 µM
How it was run: as §1

[17] = compound: CCN(CCO)CCCOc1ccc2c(Nc3cc(CC(=O)Nc4cccc(F)c4)[nH]n3)ncnc2c1 [AZD2811]; details: max 1 µM
How it was run: as §1

[18] = compound: N#Cc1cnc(Nc2cc(NC[C@H]3CNCCO3)c(C(F)(F)F)cn2)cn1 [SRA737]; details: max 10 µM
How it was run: as §1

[19] = compound: NC1(c2ccc(-c3nc4ccn5c(=O)[nH]nc5c4cc3-c3ccccc3)cc2)CCC1 [MK-2206]; details: max 10 µM
How it was run: as §1

[20] = compound: Nc1ccn([C@@H]2O[C@H](CO)[C@@H](O)C2(F)F)c(=O)n1 [Gemcitabine]; details: max 0.3 µM
How it was run: as §1

[21] = compound: CC1=CN2[C@@H](C1)C=NC3=CC(=C(C=C3C2=O)OC)OCCCCCOC4=C(C=C5C(=C4)N=C[C@@H]6CC(=CN6C5=O)C)OC [SG3199]; details: max 0.001 µM
How it was run: as §1

[22] = compound: CC(C)n1c(=O)n(C)c2cnc3cc(F)c(-c4ccc(OCCCN5CCCCC5)nc4)cc3c21 [AZD1390]; details: max 0.3 µM
How it was run: as §1

[23] = compound: Cc1c2c(nn1C)CSCc1cc(n(C)n1)CSc1cc(c3ccccc3c1)OCCCc1c(C(=O)O)n(C)c3c-2c(Cl)ccc13 [AZD5991]; details: max 1 µM
How it was run: as §1

[24] = compound: COc1cc2ncnc(Nc3ccc(F)c(Cl)c3)c2cc1OCCCN1CCOCC1 [Gefitinib]; details: max 10 µM
How it was run: as §1

[25] = compound: C=CCn1c(=O)c2cnc(Nc3ccc(N4CCN(C)CC4)cc3)nc2n1-c1cccc(C(C)(C)O)n1 [AZD1775]; details: max 3 µM
How it was run: as §1

[26] = compound: O=C(c1cc(Cc2n[nH]c(=O)c3ccccc23)ccc1F)N1CCN(C(=O)C2CC2)CC1 [Olaparib]; details: max 10 µM
How it was run: as §1

[27] = compound: COc1cccc(OCCCN)c1-c1cc(Nc2cnc(C#N)cn2)n[nH]1 [Prexasertib]; details: max 1 µM
How it was run: as §1

[28] = compound: C[C@@H](Nc1cc(F)cc(F)c1)c1cc(C(=O)N(C)C)cc2c(=O)cc(N3CCOCC3)oc12 [AZD8186]; details: max 10 µM
How it was run: as §1

[29] = compound: Cn1cnc2c(F)c(Nc3ccc(Br)cc3Cl)c(C(=O)NOCCO)cc21 [Selumetinib]; details: max 10 µM
How it was run: as §1

[30] = compound: CC1=C(C(=CC=C1)Cl)NC(=O)C2=CN=C(S2)NC3=CC(=NC(=N3)C)N4CCN(CC4)CCO [Dasatinib]; details: max 2 µM
How it was run: as §1

[31] = compound: CC(=O)O[C@H]1C(=O)[C@@]2(C)[C@H]([C@H](OC(=O)c3ccccc3)[C@]3(O)C[C@H](OC(=O)[C@H](O)[C@@H](NC(=O)c4ccccc4)c4ccccc4)C(C)=C1C3(C)C)[C@]1(OC(C)=O)CO[C@@H]1C[C@@H]2O [Paclitaxel]; details: max 3 µM
How it was run: as §1

[32] = compound: C1CC(C1)(C(=O)[O-])C(=O)[O-].N.N.[Pt+2] [Carboplatin]; details: max 10 µM
How it was run: as §1

[33] = compound: CS(=O)(=O)CCNCc1ccc(-c2ccc3ncnc(Nc4ccc(OCc5cccc(F)c5)c(Cl)c4)c3c2)o1 [Lapatinib]; details: max 10 µM
How it was run: as §1

[34] = compound: COc1cc([C@@H]2c3cc4c(cc3[C@@H](O[C@@H]3O[C@@H]5CO[C@@H](C)O[C@H]5[C@H](O)[C@H]3O)[C@H]3COC(=O)[C@H]23)OCO4)cc(OC)c1O [Etoposide]; details: max 10 µM
How it was run: as §1

[35] = compound: O=c1[nH]cc(F)c(=O)[nH]1 [5-Fluorouracil]; details: max 20 µM
How it was run: as §1

Row | Cell Line | IC50, cell viability 72 h [1] | IC50, cell viability 72 h [2] | IC50, cell viability 72 h [3] | IC50, cell viability 72 h [4] | IC50, cell viability 72 h [5] | IC50, cell viability 72 h [6] | IC50, cell viability 72 h [7] | IC50, cell viability 72 h [8] | IC50, cell viability 72 h [9] | IC50, cell viability 72 h [10] | IC50, cell viability 72 h [11] | IC50, cell viability 72 h [12] | IC50, cell viability 72 h [13] | IC50, cell viability 72 h [14] | IC50, cell viability 72 h [15] | IC50, cell viability 72 h [16] | IC50, cell viability 72 h [17] | IC50, cell viability 72 h [18] | IC50, cell viability 72 h [19] | IC50, cell viability 72 h [20] | IC50, cell viability 72 h [21] | IC50, cell viability 72 h [22] | IC50, cell viability 72 h [23] | IC50, cell viability 72 h [24] | IC50, cell viability 72 h [25] | IC50, cell viability 72 h [26] | IC50, cell viability 72 h [27] | IC50, cell viability 72 h [28] | IC50, cell viability 72 h [29] | IC50, cell viability 72 h [30] | IC50, cell viability 72 h [31] | IC50, cell viability 72 h [32] | IC50, cell viability 72 h [33] | IC50, cell viability 72 h [34] | IC50, cell viability 72 h [35]
1 | SK-LMS-1 (Other Solid Carcinomas) | 9410 nM | > 1000 nM | > 10000 nM | > 10000 nM | > 10000 nM | > 1000 nM | 8330 nM | > 1000 nM | > 3000 nM | 4530 nM | 511 nM | > 10000 nM | 4110 nM | 484 nM | 8.12 nM | > 1000 nM | > 1000 nM | > 10000 nM | > 10000 nM | 17.4 nM | > 1 nM | > 300 nM | > 1000 nM | > 10000 nM | 1630 nM | > 10000 nM | 386 nM | 7780 nM | > 10000 nM | > 2000 nM | 16.1 nM | > 10000 nM | > 10000 nM | 4430 nM | > 20000 nM
2 | SW948 (Colorectal Carcinoma) | 5440 nM | 918 nM | > 10000 nM | > 10000 nM | > 10000 nM | > 1000 nM | 44.4 nM | > 1000 nM | > 3000 nM | 2470 nM | > 1000 nM | 6290 nM | 343 nM | 35.2 nM | > 300 nM | > 1000 nM | > 1000 nM | > 10000 nM | > 10000 nM | > 300 nM | > 1 nM | > 300 nM | > 1000 nM | > 10000 nM | 1390 nM | > 10000 nM | 136 nM | > 10000 nM | 1080 nM | > 2000 nM | 29.9 nM | > 10000 nM | > 10000 nM | > 10000 nM | > 20000 nM
3 | HLE (Hepatocellular Carcinoma) | > 10000 nM | > 1000 nM | > 10000 nM | 4910 nM | > 10000 nM | > 1000 nM | 2230 nM | > 1000 nM | > 3000 nM | > 5000 nM | 426 nM | > 10000 nM | > 10000 nM | > 1000 nM | 14.3 nM | > 1000 nM | > 1000 nM | > 10000 nM | > 10000 nM | 114 nM | > 1 nM | > 300 nM | > 1000 nM | > 10000 nM | 625 nM | > 10000 nM | 107 nM | > 10000 nM | > 10000 nM | > 2000 nM | 60.3 nM | > 10000 nM | > 10000 nM | > 10000 nM | > 20000 nM
